Measurements taken from patent publication US20110104081A1, “Oral Compositions for Treatment of Dry Mouth” (priority 2009, published 2011).

Experiment: Water gain (moisture uptake) of treated cotton swatches
Type: physicochemical
Details: dried
Procedure: For table 2, the test method is as follows: For “no rinse”: 1×1 cm cotton swatches (triplicates) are placed into a weigh boat where each is labeled according to treatment type and number. Initial weights are recorded for each sample. 500 uL of polymer solution is applied to each cotton swatch sample then reweighed as wet weight. Samples are allowed to dry overnight at room temperature conditions. Sample weights are recorded in the following morning as “no rinse”. Samples are then placed on a tray in the incubator at 37° C., 3.3% CO2, and approximately 90% humidity (the metal tray at the bottom of the incubator has plenty of distilled water in the pan to ensure constant humidity). Opening and closing the incubator door frequently causes parameters to shift so minimizing this will ensure proper control over parameter. Samples are incubated for 8 hours then reweighed. The weights represent the moisture uptake ability for the treated samples. For “with rinse”: Following the weighing, samples are rinsed for 5 seconds in 500 g of vortexing water, and placed into respective weigh boat. Samples are dried overnight at room temperature conditions. Samples are weighed and placed in the incubator the following morning similar to above described procedure and weights are recorded as “with rinse”.

## OCC(O)CO [40% glycerin, glycerin]
No Rinse, incubated 8 hours at 37° C., approximately 90% humidity
  Water gain: 393.3 mg
With Rinse, rinsed with water, incubated
  Water gain: 126.9 mg
